Starred links: 1 amine or outer side, 2 acyl side, 3 side chain; linkers in the order of their positions; H or OH if unused. Positions of bridges follow the written chain, without caps; N, C: chain ends. Non-standard residues stand in square brackets, D forms with d. Residues, ends and D or L forms follow the SMILES beside them. Groups on a side chain read outwards from the residue. *: point of attachment. PEG12 = NCCOCCOCCOCCOCCOCCOCCOCCOCCOCCOCCOCCOCCC(=O)O; C18 diacid = O=C(O)CCCCCCCCCCCCCCCCC(=O)*; X15 = O=C([C@H](CCc1nnn[nH]1)N[*:1])[*:2]; X8 = O=C([C@H](CCc1nn[nH]n1)N[*:1])[*:2]; Dip = N[C@H](C(=O)O)C(c1ccccc1)c1ccccc1; His(τ-Me) = Cn1cnc(C[C@H](N)C(=O)O)c1; Palmitoyl = CCCCCCCCCCCCCCCC(=O)*; Myristoyl = CCCCCCCCCCCCCC(=O)*; β3hF = N[C@H](CC(=O)O)Cc1ccccc1; NMeK = CN[C@@H](CCCCN)C(=O)O; hLeu = CC(C)CC[C@H](N)C(=O)O; Decanoyl = CCCCCCCCCC(=O)*; Isovaleryl = CC(C)CC(=O)*; Octanoyl = CCCCCCCC(=O)*; Abu = CC[C@H](N)C(=O)O; AEEA = NCCOCCOCC(=O)O; NHBn = c1ccc(CN*)cc1; Ahx = NCCCCCC(=O)O; βAla = NCCC(=O)O
T1: ferroportin endogenously expressed on T47D cells (HTB 133, ATCC) (human, UniProt Q9NP59 1-571)
T1 sequence (looked up): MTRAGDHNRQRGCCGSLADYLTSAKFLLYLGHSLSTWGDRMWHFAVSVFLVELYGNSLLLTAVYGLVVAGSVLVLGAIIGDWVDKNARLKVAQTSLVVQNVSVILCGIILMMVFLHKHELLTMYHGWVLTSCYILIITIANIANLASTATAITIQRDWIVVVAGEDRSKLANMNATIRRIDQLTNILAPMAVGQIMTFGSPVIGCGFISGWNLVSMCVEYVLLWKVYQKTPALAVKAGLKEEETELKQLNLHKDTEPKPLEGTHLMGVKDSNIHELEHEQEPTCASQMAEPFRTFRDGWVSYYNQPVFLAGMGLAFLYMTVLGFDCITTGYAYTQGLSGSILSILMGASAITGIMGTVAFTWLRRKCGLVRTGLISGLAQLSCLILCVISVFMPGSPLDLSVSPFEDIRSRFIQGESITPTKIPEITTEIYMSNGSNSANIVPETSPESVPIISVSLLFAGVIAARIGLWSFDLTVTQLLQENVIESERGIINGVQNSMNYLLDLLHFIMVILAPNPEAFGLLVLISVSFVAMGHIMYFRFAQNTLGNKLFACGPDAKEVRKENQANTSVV

T2: ferroportin (Homo sapiens, UniProt Q9NP59)
T2 sequence (Q9NP59 1-571): T1 sequence (looked up)

B1: Isovaleric Acid-E-T-H-[Dpa]-P-A-I-[Lys(1Peg2_1Peg2_Ahx_C18_Diacid)]-[bhPhe]-NH2 (peptide)
peptide: Isovaleryl-ETH[Dip]PAIK([AEEA-AEEA-Ahx-C18 diacid])[β3hF]-NH2
SMILES: CC[C@H](C)[C@H](NC(=O)[C@H](C)NC(=O)[C@@H]1CCCN1C(=O)[C@@H](NC(=O)[C@H](Cc1c[nH]cn1)NC(=O)[C@@H](NC(=O)[C@H](CCC(=O)O)NC(=O)CC(C)C)[C@@H](C)O)C(c1ccccc1)c1ccccc1)C(=O)N[C@@H](CCCCNC(=O)COCCOCCNC(=O)COCCOCCNC(=O)CCCCCNC(=O)CCCCCCCCCCCCCCCCC(=O)O)C(=O)N[C@H](CC(N)=O)Cc1ccccc1
B2: Isovaleric Acid-E-T-H-[Dpa]-P-A-I-[123 Triazole]-[bhPhe]-[Lys(Ahx_Palm)]-[(D)Lys]-NH2 (peptide)
peptide: XETHXPAIXXXX
modifications: N-term Isovaleric Acid; Dpa4; 123 Triazole8; bhPhe9; Lys(Ahx_Palm)10; (D)Lys11; C-term NH2; cyclized A-123Triazole (side-chain C of alanine and C5 of triazole joined by a C-C bond)

Target: T1, ferroportin endogenously expressed on …
Experiment: cell-based or functional assay
Conditions: not given

Row | Molecule | T47D MSA IC50 [µM]
1 | B1 | 0.143
2 | XETHXPXX (N-term Butyric_Acid; Dpa4; Lys(Ahx_Palm)6; C-term N_Butyl_Phe) [Butyric_Acid-E-T-H-[Dpa]-P-[Lys(Ahx_Palm)]-N_Butyl_Phe] | 0.0101
3 | XETHXPXX (N-term Cyclohexanoic_Acid; Dpa4; Lys(Ahx_Palm)6; C-term N_Butyl_Phe) [Cyclohexanoic_Acid-E-T-H-[Dpa]-P-[Lys(Ahx_Palm)]-N_Butyl_Phe] | 0.0543
4 | XETHXPXX (N-term Isovaleric Acid; Dpa4; Lys(IsoGlu_Palm)6; C-term N_Butyl_Phe) [Isovaleric Acid-E-T-H-[Dpa]-P-[Lys(IsoGlu_Palm-N_Butyl_Phe] | 0.179
5 | XETHXPXX (N-term Isovaleric Acid; Dpa4; Lys(bAla_Palm)6; C-term N_Butyl_Phe) [Isovaleric Acid-E-T-H-[Dpa]-P-[Lys(bAla_Palm-N_Butyl_Phe] | 0.0461
6 | XETHXPXX (N-term Isovaleric Acid; Dpa4; Lys(Ahx_Palm)6; C-term N_Propyl_Phe) [Isovaleric Acid-E-T-H-[Dpa]-P-[Lys(Ahx_Palm)]-N_Propyl_Phe] | 0.0153
7 | XETHXPXX (N-term Isovaleric Acid; Dpa4; Lys(Ahx_Palm)6; C-term N_Pentyl_Phe) [Isovaleric Acid-E-T-H-[Dpa]-P-[Lys(Ahx_Palm)]-N_Pentyl_Phe] | 0.0127
8 | XETHXPXX (N-term Isovaleric Acid; Dpa4; Lys(Ahx_Palm)6; C-term N_Ethyl_Nap) [Isovaleric Acid-E-T-H-[Dpa]-P-[Lys(Ahx_Palm)]-N_Ethyl_Nap] | 0.0244
9 | B2 | 0.0108
10 | Isovaleryl-ETH[Dip]P[Abu]IK([PEG12-C18 diacid])[β3hF][dK]C-NH2 (thioether 6-11) [Isovaleric Acid-E-T-H-[Dpa]-P-Abu-I-[Lys(PEG12_C18_Diacid)]-[bhPhe]-[(D)Lys]-[Cys]-NH2] | 0.388

Target: T2, ferroportin
Experiment: FPN activity assay: internalization/degradation of ferroportin-GFP in stably transfected HEK293 cells (loss of GFP fluorescence)
Type: cell-based
Conditions: Table 6A; read-out: FPN EC50
Experimental: Following internalization, the ferroporin protein is degraded.
A retro inverse peptide is a peptide with a reversed sequence in all D amino acids. An example is that Hy-Glu-Thr-His-NH2 becomes Hy-DHis-DThr-DGlu-NH2. The EC50 of these reference compounds for ferroportin internalization/degradation was determined according to the FPN activity assay described above. These peptides served as control standards.

Row | Molecule | DC50 [µM]
11 | CCCCCCCCCCCCCCCC(=O)NCCCCCC(=O)NCCCC[C@H](NC(=O)C[C@H](Cc1ccccc1)NC(=O)[C@H](CCCCN)N(C)C(=O)[C@@H](NC(=O)[C@H](C)NC(=O)[C@@H]1CCCN1C(=O)[C@@H](NC(=O)[C@H](Cc1c[nH]cn1)NC(=O)[C@@H](NC(=O)[C@H](CC(C)C)NC(=O)CC(C)C)[C@@H](C)O)C(c1ccccc1)c1ccccc1)[C@@H](C)CC)C(N)=O [compound 46] (Isovaleryl-LTH[Dip]PAI[NMeK][β3hF]K([Ahx-Palmitoyl])-NH2) | 0.103
12 | CCCCCCCC(=O)NCCCCCC(=O)NCCCC[C@H](NC(=O)[C@@H](NC(=O)[C@H](C)NC(=O)[C@@H]1CCCN1C(=O)[C@@H](NC(=O)[C@H](Cc1c[nH]cn1)NC(=O)[C@@H](NC(=O)[C@H](CCC(=O)O)NC(=O)CC(C)C)[C@@H](C)O)C(c1ccccc1)c1ccccc1)[C@@H](C)CC)C(=O)N[C@H](CC(N)=O)Cc1ccccc1 [compound 103] (Isovaleryl-ETH[Dip]PAIK([Ahx-Octanoyl])[β3hF]-NH2) | 0.162
13 | CCCCCCCCCCCCCCCC(=O)NCCCCCC(=O)NCCCC[C@H](NC(=O)[C@@H](NC(=O)[C@H](CCC(C)C)NC(=O)[C@@H]1CCCN1C(=O)[C@@H](NC(=O)[C@H](Cc1c[nH]cn1)NC(=O)[C@@H](NC(=O)[C@H](CCC(=O)O)NC(=O)CC(C)C)[C@@H](C)O)C(c1ccccc1)c1ccccc1)[C@@H](C)CC)C(=O)N[C@H](CC(N)=O)Cc1ccccc1 [compound 121] (Isovaleryl-ETH[Dip]P[hLeu]IK([Ahx-Palmitoyl])[β3hF]-NH2) | 0.15
14 | CCCCCCCCCCCCCCCC(=O)NCCCCCC(=O)NCCCC[C@H](NC(=O)[C@@H](NC(=O)[C@H](C)NC(=O)[C@@H]1CCCN1C(=O)[C@@H](NC(=O)[C@H](Cc1c[nH]cn1)NC(=O)[C@@H](NC(=O)[C@H](CCC(=O)O)NC(=O)CC(C)C)[C@@H](C)O)C(c1ccccc1)c1ccccc1)[C@@H](C)CC)C(=O)NCc1ccccc1 [compound 52] (Isovaleryl-ETH[Dip]PAIK([Ahx-Palmitoyl])-NHBn) | 0.162
15 | CCCCCCCCCCCCCCCC(=O)NCCC(=O)NCCC(=O)NCCCC[C@H](NC(=O)[C@@H](NC(=O)[C@H](C)NC(=O)[C@@H]1CCCN1C(=O)[C@@H](NC(=O)[C@H](Cc1c[nH]cn1)NC(=O)[C@@H](NC(=O)[C@H](CCC(=O)O)NC(=O)CC(C)C)[C@@H](C)O)C(c1ccccc1)c1ccccc1)[C@@H](C)CC)C(=O)N[C@H](CC(N)=O)Cc1ccccc1 [compound 99] (Isovaleryl-ETH[Dip]PAIK([βAla-βAla-Palmitoyl])[β3hF]-NH2) | 0.103
16 | CC[C@H](C)[C@H](NC(=O)[C@@H](NC(=O)[C@@H]1CCCN1C(=O)[C@@H](NC(=O)[C@H](Cc1c[nH]cn1)NC(=O)[C@@H](NC(=O)[C@H](CCC(=O)O)NC(=O)CNCC(=O)O)[C@@H](C)O)C(c1ccccc1)c1ccccc1)[C@@H](C)CC)C(=O)N[C@@H](CCCCNC(C)=O)C(=O)N[C@H](CC(N)=O)Cc1ccccc1 [compound 71] | > 5
17 | CC[C@H](C)[C@H](NC(=O)[C@H](C)NC(=O)[C@@H]1CCCN1C(=O)[C@@H](NC(=O)[C@H](Cc1c[nH]cn1)NC(=O)[C@@H](NC(=O)[C@H](CCc1nnn[nH]1)NC(=O)CC(C)C)[C@@H](C)O)C(c1ccccc1)c1ccccc1)C(=O)N[C@@H](CCCCNC(C)=O)C(=O)N[C@H](CC(=O)N[C@H](CCCCN)C(=O)N[C@@H](C)C(N)=O)Cc1ccccc1 [compound 38] (Isovaleryl-[X15]TH[Dip]PAIK(Ac)[β3hF][dK]A-NH2) | 0.117
18 | CC[C@H](C)[C@H](NC(=O)[C@H](C)NC(=O)[C@@H]1CCCN1C(=O)[C@@H](NC(=O)[C@H](Cc1cn(C)cn1)NC(=O)[C@@H](NC(=O)[C@H](CCc1nn[nH]n1)NC(=O)CC(C)C)[C@@H](C)O)C(c1ccccc1)c1ccccc1)C(=O)N[C@@H](CCCCNC(C)=O)C(=O)N[C@H](CC(=O)N[C@H](CCCCN)C(=O)N[C@@H](C)C(N)=O)Cc1ccccc1 [compound 40] (Isovaleryl-[X8]T[His(τ-Me)][Dip]PAIK(Ac)[β3hF][dK]A-NH2) | > 3
19 | CCCCCCCCCCCCCCCC(=O)NCCCCCC(=O)NCCCC[C@H](NC(=O)[C@@H](NC(=O)[C@@H](NC(=O)[C@@H]1CCCN1C(=O)[C@@H](NC(=O)[C@H](Cc1cn(C)cn1)NC(=O)[C@@H](NC(=O)[C@H](CCc1nn[nH]n1)NC(=O)CC(C)C)[C@@H](C)O)C(c1ccccc1)c1ccccc1)[C@@H](C)CC)[C@@H](C)CC)C(=O)N[C@H](CC(N)=O)Cc1ccccc1 [compound 117] (Isovaleryl-[X8]T[His(τ-Me)][Dip]PIIK([Ahx-Palmitoyl])[β3hF]-NH2) | 0.101

Same assay, conditions: ferroportin-GFP HEK293 cells, compound incubated at least 18 hours; read-out: FPN IC50

Row | Molecule | DC50 [µM]
20 | CCCCCCCCCC(=O)NCCCCCC(=O)NCCCC[C@H](NC(=O)[C@@H](NC(=O)[C@H](C)NC(=O)[C@@H]1CCCN1C(=O)[C@H](Cc1ccccc1)NC(=O)[C@H](Cc1c[nH]cn1)NC(=O)[C@@H](NC(=O)[C@H](CCC(=O)O)NC(=O)CC(C)C)[C@@H](C)O)[C@@H](C)CC)C(=O)N[C@@H](Cc1ccccc1)C(=O)N[C@@H](CCC(=O)O)C(=O)N1CCC[C@H]1C(=O)N[C@@H](CCCNC(=N)N)C(=O)N[C@@H](CO)C(=O)N[C@@H](CCCCN)C(=O)NCC(=O)N[C@@H](C)C(=O)N[C@@H](CCCCN)C(N)=O [compound 244] (Isovaleryl-ETHFPAIK([Ahx-Decanoyl])FEPRSKGAK-NH2) | > 3
21 | CC(C)CC(=O)N[C@@H](CCC(=O)O)C(=O)N[C@H](C(=O)N[C@@H](Cc1c[nH]cn1)C(=O)N[C@H](C(=O)N1CCC[C@H]1C(=O)N[C@H](CCCCNC(=O)COCCOCCNC(=O)COCCOCCNC(=O)CCCCCNC(=O)CCCCCCCCCCCCCCCCC(=O)O)C(=O)N[C@H](CC(N)=O)Cc1ccccc1)C(c1ccccc1)c1ccccc1)[C@@H](C)O [compound 214] | 0.0868
22 | CCCCCCCCCCCCCC(=O)NCCCCCC(=O)NCCCC[C@H](NC(=O)[C@@H](NC(=O)[C@H](C)NC(=O)[C@@H]1CCCN1C(=O)[C@H](Cc1ccccc1)NC(=O)[C@H](Cc1c[nH]cn1)NC(=O)[C@@H](NC(=O)[C@H](CCC(=O)O)NC(=O)CC(C)C)[C@@H](C)O)[C@@H](C)CC)C(=O)N[C@@H](Cc1ccccc1)C(=O)N[C@@H](CCC(=O)O)C(=O)N1CCC[C@H]1C(=O)N[C@@H](CCCNC(=N)N)C(=O)N[C@@H](CO)C(=O)N[C@@H](CCCCN)C(=O)NCC(=O)N[C@H](C)C(N)=O [compound 246] (Isovaleryl-ETHFPAIK([Ahx-Myristoyl])FEPRSKG[dA]-NH2) | 1.07
23 | CCCCCCCCCCCCCC(=O)NCCCCCC(=O)NCCCC[C@H](NC(=O)[C@@H](NC(=O)[C@H](C)NC(=O)[C@@H]1CCCN1C(=O)[C@H](Cc1ccccc1)NC(=O)[C@H](Cc1c[nH]cn1)NC(=O)[C@@H](NC(=O)[C@H](CCC(=O)O)NC(=O)CC(C)C)[C@@H](C)O)[C@@H](C)CC)C(=O)N[C@@H](Cc1ccccc1)C(=O)N[C@@H](CCC(=O)O)C(=O)N1CCC[C@H]1C(=O)N[C@@H](CCCNC(=N)N)C(=O)N[C@H](CO)C(N)=O [compound 247] (Isovaleryl-ETHFPAIK([Ahx-Myristoyl])FEPR[dS]-NH2) | 1.16
